The results in this text go back to BindingDB's records for doi:10.1021/np4008798 (The Chinese University of Hong Kong, 2014).

The nature of the experiment: Inhibition of tyrosinase in mouse Melan-a cells assessed as decrease in L-DOPA Vmax at 60 uM by Lineweaver-Burk plot.

Regarding `OC[C@H]1O[C@@H](Oc2c(O)cc(O)cc2/C=C/c2ccc(O)cc2)[C@H](O)[C@@H](O)[C@@H]1O`, the Ki worked out at 3.1 mM.

Usually Ki stands for the equilibrium dissociation constant of an inhibitor or competing ligand from its target.
